Test results taken from US10160753B2, “Indazole compounds as IRAK4 inhibitors” (Aurigene Discovery Technologies Limited, priority 2014, dated 2018).
Where a name gives a salt, the structure may show the parent alone.

biological target: T1, recombinant IRAK-4 kinase (Homo sapiens, UniProt Q9NWZ3); experiment: IRAK-4 Biochemical Assay (TR-FRET); conditions: 30 min pre-incubation, 100 nM Biotin Histone H3, 20 μM ATP, read-out: IC50 values for IRAK4 activity
T1 construct: purchased Millipore, USA
T1 sequence (Q9NWZ3 1-460): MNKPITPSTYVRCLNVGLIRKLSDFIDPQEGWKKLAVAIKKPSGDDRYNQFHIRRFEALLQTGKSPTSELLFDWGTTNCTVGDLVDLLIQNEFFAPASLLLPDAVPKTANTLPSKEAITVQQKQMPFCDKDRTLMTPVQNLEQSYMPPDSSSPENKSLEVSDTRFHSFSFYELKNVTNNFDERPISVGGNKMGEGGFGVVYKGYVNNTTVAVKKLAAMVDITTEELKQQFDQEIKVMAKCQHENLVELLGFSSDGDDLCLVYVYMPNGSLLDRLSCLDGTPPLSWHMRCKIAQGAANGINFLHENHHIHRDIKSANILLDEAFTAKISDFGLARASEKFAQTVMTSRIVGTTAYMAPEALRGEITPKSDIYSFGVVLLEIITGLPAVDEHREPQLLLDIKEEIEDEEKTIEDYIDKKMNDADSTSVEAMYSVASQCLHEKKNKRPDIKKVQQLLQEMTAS
Experimental: Compounds were tested for their potential to inhibit IRAK-4 enzyme in a TR-FRET assay using recombinant IRAK-4 kinase from Millipore, USA. The assay buffer was 50 mM Tris-HCl pH 7.5, 20 mM MgCl2, 1 mM EGTA, 2 mM DTT, 3 mM MnCl2 and 0.01% Tween 20.5 ng of IRAK-4 kinase was used for the assay. After pre-incubation of enzyme with test compound for 30 minutes at room temperature, a substrate mixture containing 100 nM Biotin Histone H3 (Millipore, USA) and 20 μM ATP (Sigma, USA) was added and the reaction was incubated for 30 min. Post incubation, the reaction was stopped by the addition of stop mix containing 40 mM EDTA, 1 nM of Europium-Anti-Phospho-Histone H3 (Ser10) antibody (Perkin Elmer, USA) and 20 nM SureLight Allophycocyanin-Streptavidin (Perkin Elmer, USA). The fluorescence emission at 615 nm and 665 nm were measured at an excitation of 340 nm and the percent inhibition was estimated from the ratio of the fluorescence intensities [(F665/F615)×10000]. The compounds were initially screened at 1 μM and 10 μM concentrations and potent compounds (>50% inhibition at 1 μM) were taken for dose response studies. The IC50 values were estimated by fitting the dose-response data to sigmoidal dose response (variable slope), curve fitting program using Graphpad Prism software Version 6.01.

Row | SMILES | IC50
1 | C[C@H](O)Cn1cc(-c2nc(C(=O)Nc3cc4cnn(C)c4cc3C3CC3)co2)cn1 [Example 53, (S)—N-(6-cyclopropyl-1-methyl-1H-indazol-5-yl)-2-(1-(2-hydroxypropyl)-1H-pyrazol-4-yl)oxazole-4-carboxamide] | > 100 nM
2 | C[C@H](O)Cn1cc(-c2cccc(C(=O)Nc3cc4cnn(C)c4cc3C3CC3)n2)cn1 [Example 46, (S)—N-(6-cyclopropyl-1-methyl-1H-indazol-5-yl)-6-(1-(2-hydroxypropyl)-1H-pyrazol-4-yl)picolinamide] | 50 to 100 nM
3 | Cc1ccc(C(=O)Nc2cc3cn(C)nc3cc2N2CCCCC2)nc1-c1cnn(C)c1 [Example 30, 5-methyl-6-(1-methyl-1H-pyrazol-4-yl)-N-(2-methyl-6-(piperidin-1-yl)-2H-indazol-5-yl)picolinamide] | < 50 nM
4 | Cc1cc(-c2nc(C(=O)Nc3cc4c(C)n(C)nc4cc3N3CCC(O)CC3)co2)ccn1 [Example 83, N-(6-(4-hydroxypiperidin-1-yl)-2,3-dimethyl-2H-indazol-5-yl)-2-(2-methylpyridin-4-yl)oxazole-4-carboxamide] | < 50 nM
5 | Cn1cc2cc(NC(=O)c3coc(-c4ccnc(N)c4)n3)c(N3CCCCC3)cc2n1 [Example 86, 2-(2-aminopyridin-4-yl)-N-(2-methyl-6-(piperidin-1-yl)-2H-indazol-5-yl)oxazole-4-carboxamide hydrochloride] | < 50 nM
6 | Cc1cc(-c2nc(C(=O)Nc3cc4cn(C)nc4cc3N[C@H]3CC[C@H](O)CC3)co2)ccn1 [Example 88, N-(6-(((1R,4R)-4-hydroxycyclohexyl)amino)-2-methyl-2H-indazol-5-yl)-2-(2-methylpyridin-4-yl)oxazole-4-carboxamide] | < 50 nM
7 | C[C@H](O)Cn1cc(-c2cccc(C(=O)Nc3cc4cn(C)nc4cc3N3CCC(CO)CC3)n2)cn1 [Example 92, (S)—N-(6-(4-(hydroxymethyl)piperidin-1-yl)-2-methyl-2H-indazol-5-yl)-6-(1-(2-hydroxypropyl)-1H-pyrazol-4-yl)picolinamide] | < 50 nM
8 | Cc1cc(-c2nc(C(=O)Nc3cc4cn(C)nc4cc3N3CCCCC3)co2)ccn1 [Example 2, N-(2-methyl-6-(piperidin-1-yl)-2H-indazol-5-yl)-2-(2-methylpyridin-4-yl) oxazole-4-carboxamide] | < 50 nM
9 | COCCn1cc2cc(NC(=O)c3coc(-c4ccnc(C)c4)n3)c(N3CCC(O)CC3)cc2n1 [Example 76, N-(6-(4-hydroxypiperidin-1-yl)-2-(2-methoxyethyl)-2H-indazol-5-yl)-2-(2-methylpyridin-4-yl)oxazole-4-carboxamide] | < 50 nM

Second part, the molecule after the results:

Row | IC50 | SMILES
10 | < 50 nM | Cc1cc(-c2nc(C(=O)Nc3cc4c(C)n(C)nc4cc3N3CCCCC3)co2)ccn1 [Example 73, N-(2,3-dimethyl-6-(piperidin-1-yl)-2H-indazol-5-yl)-2-(2-methylpyridin-4-yl)oxazole-4-carboxamide]
11 | < 50 nM | Cc1cc(-c2nc(C(=O)Nc3cc4cnn(C)c4cc3N3CCCC3)co2)ccn1 [Example 62, N-(1-methyl-6-(pyrrolidin-1-yl)-1H-indazol-5-yl)-2-(2-methylpyridin-4-yl)oxazole-4-carboxamide]
12 | < 50 nM | Cn1cc2cc(NC(=O)c3coc(-c4ccnc(N)c4)n3)c(N3CC[C@@H](O)C3)cc2n1 [Example 105, (R)-2-(2-aminopyridin-4-yl)-N-(6-(3-hydroxypyrrolidin-1-yl)-2-methyl-2H-indazol-5-yl)oxazole-4-carboxamide hydrochloride]
13 | < 50 nM | Cc1cc(-c2nc(C(=O)Nc3cc4cn(C)nc4cc3N3CCCCC3)co2)cc(C)n1 [Example 119, 2-(2,6-dimethylpyridin-4-yl)-N-(2-methyl-6-(piperidin-1-yl)-2H-indazol-5-yl)oxazole-4-carboxamide hydrochloride]
14 | < 50 nM | Cc1ccc(C(=O)Nc2cc3cn(C)nc3cc2N2CCCCC2)nc1-c1ccc(N)nc1 [Example 29, 6′-amino-3-methyl-N-(2-methyl-6-(piperidin-1-yl)-2H-indazol-5-yl)-[2,3′-bipyridine]-6-carboxamide hydrochloride]
